How the values were obtained:
Assay type in all cases: in vitro ADME
CYP1A2 = target: T1, CYP1A2 (Rattus norvegicus, UniProt P04799); test: CYP1A2 inhibition (phenacetin O-deethylation) in rat liver microsomes, cocktail LC-MS/MS
T1 construct: consisting of pooled HLMs (0.5 mg/ml) or RLMs (1 mg/ml) and an NADPH-regenerating system; from tissue; host or cells: rat liver microsomes prepared in house
T1 sequence (P04799 1-513): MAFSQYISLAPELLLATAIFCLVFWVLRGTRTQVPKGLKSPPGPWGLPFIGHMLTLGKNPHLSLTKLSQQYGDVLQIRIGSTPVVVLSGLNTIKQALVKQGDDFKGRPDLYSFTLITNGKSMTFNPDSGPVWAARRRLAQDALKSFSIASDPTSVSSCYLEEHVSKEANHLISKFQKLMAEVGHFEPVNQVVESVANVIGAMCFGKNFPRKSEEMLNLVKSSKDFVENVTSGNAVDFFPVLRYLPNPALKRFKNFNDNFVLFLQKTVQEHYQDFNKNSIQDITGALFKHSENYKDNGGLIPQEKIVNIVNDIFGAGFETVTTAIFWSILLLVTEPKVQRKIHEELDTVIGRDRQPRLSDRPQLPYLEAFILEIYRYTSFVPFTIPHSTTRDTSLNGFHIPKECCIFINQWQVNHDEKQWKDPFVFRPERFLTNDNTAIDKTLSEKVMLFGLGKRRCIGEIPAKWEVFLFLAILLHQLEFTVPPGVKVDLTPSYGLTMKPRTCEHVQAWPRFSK
Protocol: (§1) In this study, the rats were fasted overnight and killed by cervical dislocation before removal of the liver. The liver was excised, rinsed with ice-cold saline (0.9% NaCl w/v), weighed and homogenized in a […] Tris/KCl buffer (pH 7.4). Subsequently, the homogenate was centrifuged at 10,000 × g at 4 °C for 30 min. The supernatant was then centrifuged at 105,000 × g at 4 °C for 60 min. The pellet was reconstituted with […] Tris/KCl buffer (pH 7.4) and stored at −150 °C until use. The protein concentration of the liver microsomes was determined by a protein quantitative assay using bicinchoninic acid[22].
(§2) Microsomal incubation was carried out at 37 °C in a mixture of 200 μl in 0.05 M Tris/HCl buffer (pH 7.4) consisting of pooled HLMs (0.5 mg/ml) or RLMs (1 mg/ml) and an NADPH-regenerating system including MgCl2 (5 mM), G6P (10 mM), G6PDH (0.4 U/ml) and NADP (1 mM). Substrates were added into the incubation mixture and obtained the final concentrations (10 μM phenacetin for CYP1A2, 20 μM bupropion for CYP2B1/6, 20 μM tolbutamide for CYP2C9/11, 5 μM dextromethorphan for CYP2D1/6, 20 μM chlorzoxazone for CYP2E1 and 10 μM midazolam for CYP3A2/4), which were close to Km respectively. The proportion of organic solvent was not higher than 1% (v/v) in the incubation mixture. After pre-incubation for 5 min, the reaction was initiated by addition of NADP. Incubations were performed for 20 min, stopped by adding 200 μl ice-cold acetonitrile. And then 20 μl internal standard solution was added (3-acetamidophenol 2 μg/ml, chlorpropamide 2 μg/ml and mebendazole 2 μg/ml). The solution was mixed thoroughly for 3 min and centrifuged for 10 min at 16,000 × g at 4 °C. The supernatant (60 μl) was transferred to autosampler vials, and 2 μl was injected into LC-MS/MS system.
(§3) The IC50 (concentration of inhibitor to cause 50% inhibition of original enzyme activity) values were determined with the same incubation condition above. The specific concentrations of plumbagin were ranged from 0.1 μM to 50 μM. The IC50 values were calculated by plotting relative activities over the logarithm of plumbagin concentrations using GraphPad Prism 5.0 (GraphPad software Inc., CA, USA).
(§4) Cocktail probe substrates were then added and incubated for 20 min. Reactions were stopped with 200 μl ice-cold acetonitrile. The samples were treated according to the microsomal incubation method and then injected into LC-MS/MS for analysis.
(§5) Kinetic studies were performed for determining the types of inhibition on CYP by plumbagin. Pooled HLMs (0.5 mg/ml) or RLMs (1 mg/ml) with plumbagin (1 μM, 2 μM, 5 μM and 10 μM) were incubated in 0.05 M Tris/HCl buffer (pH 7.4) for 20 min at 37 °C. A series of concentrations for cocktail probe substrates were used: 2.5–20 μM phenacetin for CYP1A2; 5–40 μM bupropion for CYP2B1/6; 5–40 μM tolbutamide for CYP2C9/11; 1.25–10 μM dextromethorphan for CYP2D1/6; 5–40 μM chlorzoxazone for CYP2E1; 2.5–80 μM midazolam for CYP3A2; and 0.625–5 μM midazolam for CYP3A4. Enzyme kinetics as well as statistical analysis were performed using GraphPad Prism 5.0.
(§6) All data were presented as mean ± SD. The IC50 values were fitted by non-linear regression analysis using GraphPad Prism 5.0. The kinetic parameters were obtained by fitting velocity data to kinetic models (Michaelis-Menten) using GraphPad Prism 5.0. The Lineweaver-Burk Plot (the reciprocal of reaction velocities versus the reciprocal of substrates concentrations) was used to determine the quality of fit to a specific inhibition model. The inhibition constant (Ki) was obtained by a secondary plot using the slopes of the primary Lineweaver-Burk Plot (Km/Vmax versus inhibitor concentrations). αKi was obtained from a secondary plot using the y-intercepts of the Lineweaver-Burk plot (1/Vmax versus inhibitor concentrations). All results were analyzed in quadruplicate. One-way analysis of variance was used to estimate the significance of differences. […]

CYP3A2 = target: T2, CYP3A2 (Rattus norvegicus, UniProt P05183)
T2 construct: consisting of pooled HLMs (0.5 mg/ml) or RLMs (1 mg/ml) and an NADPH-regenerating system; from tissue; host or cells: rat liver microsomes prepared in house
T2 sequence (P05183 1-504): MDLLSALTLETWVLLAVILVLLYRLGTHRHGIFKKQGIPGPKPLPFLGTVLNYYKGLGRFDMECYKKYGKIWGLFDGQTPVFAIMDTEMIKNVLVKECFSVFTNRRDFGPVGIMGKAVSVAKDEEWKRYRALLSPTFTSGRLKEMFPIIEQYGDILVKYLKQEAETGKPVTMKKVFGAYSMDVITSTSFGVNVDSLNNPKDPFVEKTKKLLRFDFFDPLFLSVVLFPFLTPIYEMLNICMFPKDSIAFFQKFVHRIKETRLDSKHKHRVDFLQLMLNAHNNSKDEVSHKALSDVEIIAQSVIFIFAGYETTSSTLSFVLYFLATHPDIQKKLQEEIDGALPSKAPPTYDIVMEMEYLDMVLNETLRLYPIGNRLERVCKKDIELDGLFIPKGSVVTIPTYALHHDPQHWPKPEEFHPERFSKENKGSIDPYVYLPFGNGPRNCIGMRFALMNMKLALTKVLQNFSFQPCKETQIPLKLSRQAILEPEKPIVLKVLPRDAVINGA
Protocol: as §1, §2, §3, §4, §5, §6

CYP2E1 = target: T3, CYP2E1 (Rattus norvegicus, UniProt P05182); test: biochemical
T3 construct: consisting of pooled HLMs (0.5 mg/ml) or RLMs (1 mg/ml) and an NADPH-regenerating system; from tissue; host or cells: rat liver microsomes prepared in house
Protocol: as §1, §2
The IC50 (concentration of inhibitor to cause 50% inhibition of original enzyme activity) values were determined with the same incubation condition above. The specific concentrations of plumbagin were ranged from 0.1 μM to 50 μM. […]
All data were presented as mean ± SD. […] All results were analyzed in quadruplicate. […]

T3 sequence (P05182 whole entry): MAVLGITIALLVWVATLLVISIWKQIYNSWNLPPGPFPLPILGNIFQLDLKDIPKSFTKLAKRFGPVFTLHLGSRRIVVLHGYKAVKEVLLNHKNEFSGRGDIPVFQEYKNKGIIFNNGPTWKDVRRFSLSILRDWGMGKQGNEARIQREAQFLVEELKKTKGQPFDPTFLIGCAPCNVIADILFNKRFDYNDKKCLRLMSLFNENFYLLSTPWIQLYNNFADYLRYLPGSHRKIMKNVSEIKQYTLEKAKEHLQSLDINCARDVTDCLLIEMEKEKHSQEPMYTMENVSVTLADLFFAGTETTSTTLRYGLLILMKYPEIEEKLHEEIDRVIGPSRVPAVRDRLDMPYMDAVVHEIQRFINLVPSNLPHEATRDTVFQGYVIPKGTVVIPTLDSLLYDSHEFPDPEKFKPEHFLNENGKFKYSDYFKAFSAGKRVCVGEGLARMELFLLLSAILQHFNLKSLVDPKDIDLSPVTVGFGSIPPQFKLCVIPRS

`CC1=CC(=O)c2c(O)cccc2C1=O` [plumbagin, 5-hydroxy-2-methyl-1,4-naphthoquinone] showed an IC50 (CYP1A2) of 2.65 µM, a Ki (CYP1A2) of 2.64 µM and a α (CYP1A2; RLMs) of 0.31. For the same molecule, the Type of inhibition (CYP1A2; RLMs, Lineweaver-Burk) was “mixed-type”, the Time-dependent inhibition (CYP1A2; RLMs, pre-incubation with NADPH 0, 5, 10, 20 min, plumbagin 0.2, 0.5, 1 μM) was “no time-dependent inhibition” and the αKi (CYP1A2; RLMs, secondary plot of y-intercepts, phenacetin 2.5-20 μM) was 8.51 µM. It also gave an IC50 (CYP3A2) of 8.47 µM, an IC50 (CYP2E1) of 3.72 µM and a Ki (CYP2E1) of 6.28 µM. The Type of inhibition (CYP2E1) was “competitive”.

Source: paper PMC4916434, “Evaluation of the inhibition potential of plumbagin against cytochrome P450 using LC-MS/MS and cocktail approach” (Scientific Reports, 2016)
